Reference: article PMC11229374, “Unlocking the potential of protein-derived peptides to target G-quadruplex DNA: from recognition to anticancer activity” (Nucleic Acids Research, 2024)
*: point of attachment. FITC = O=C1OC2(c3ccc(O)cc3Oc3cc(O)ccc32)c2ccc(NC(=S)*)cc21; AEEA = NCCOCCOCC(=O)O

Assays:
c-KIT2 G4 [1] = assay: CD melting, thermal stabilization of c-KIT2 G4; type: binding, human; conditions: for ΔT1/2 of c-KIT2 G4: CD melting at 264 nm, 2 mol equiv of peptide with respect to G4, 2 μM DNA, 5 mM KH2PO4/K2HPO4 pH 7.0, 20 mM KCl, average of three, T1/2 c-KIT2 alone 59.5°C; for ΔΔT1/2, change in c-KIT2 G4-stabilizing properties with respect to Myb^397–415: CD melting, 2 mol equiv peptide, difference to Myb^397–415
Excerpt: The buffer baseline was subtracted from each spectrum.

FITC-Myb397-415 [2] = target: T1, FITC-Myb397-415 (UniProt P11938); assay: MST; conditions: 2'-F-ANA-guanosine at bold G; positions lost in the text; 5 mM KH2PO4/K2HPO4 pH 7.0, 20 mM KCl (LiCl for c-MYC stock), 25 C; MST with 0.1% Tween and 5% DMSO, 20 nM FITC-peptide
T1 sequence: NHTGNSIRHRFRVYLSKRL

U2OS cells = assay: Viability assay (crystal violet), U2OS; type: cell-based; conditions: for Impact on cancer cell viability, peptides in native form: unconjugated peptides
Protocol: U2OS, HCT116 and MDA-MB-231 cells were purchased from the ATCC and grown in Dulbecco modified Eagle's medium (DMEM; EuroClone, Milan, Italy; ECM0728L) supplemented with 10% Fetal Bovine Serum (FBS, ThermoFisher Scientific/Gibco, Waltham, MA, USA; 10270-106), 2 mM L-glutamine and antibiotics in a humidified incubator at 37°C with 5% CO2 and atmospheric O2 concentration. Cell lines were authenticated and tested to be mycoplasma-free.
U2OS, HCT116, and MDA-MB-231 cells were seeded in 24-well plates at a density of 1 × 10^4, 20 × 10^3 and 12 × 10^3 for each well, respectively. After 24 h, cells were treated with the indicated peptides and incubated at 37°C for additional 72 h. Upon treatment completion, cell medium was removed, the wells were washed twice in phosphate-buffered saline (PBS) and fixed with 4% formaldehyde for 15 min at room temperature (RT). After washing, 500 μl of crystal violet staining solution (Sigma-Aldrich, St. Louis, MO, USA) was added to each well and incubated for 30 min at RT. Finally, the plates were rinsed twice with water, air-dried and cell pellets were dissolved in 400 μl of a 10% aqueous solution of acetic acid. In total, 200 μl of each sample was transferred to a 96-well plate, and the optical density was measured at 570 nm (OD570) with an ELISA reader (Thermo Scientific, Waltham, MA, USA). The average absorbance in each condition was used to calculate the viability expressed as a percentage of treated vs untreated conditions (CTR).

c-KIT2 G4 [3] = assay: Microscale thermophoresis (MST) binding to c-KIT2 G4; parameters: species or system human; conditions: 25°C, 20 nM FITC-labelled peptide, DNA serial dilution, 5 mM KH2PO4/K2HPO4 pH 7.0, 20 mM KCl, 0.1% Tween, 5% DMSO
Protocol: MST experiments were conducted using a Monolith NT.115 instrument (NanoTemper Technologies, Munich, Germany) at 25°C with medium MST power settings. […] DNA samples were also diluted using the same buffer supplemented with 0.1% Tween. During MST experiments, the concentration of the labelled peptide was kept constant at 20 nM, while a serial dilution of the investigated DNA molecules (ranging from 10 or 20 μM) was prepared and mixed with the peptide solution in a 1:1 volume ratio. All the samples, with a final concentration of 5% DMSO, were loaded into standard capillaries (NanoTemper Technologies) for MST measurements. Data analysis was carried out using the MO.Affinity Analysis (v2.3) software provided with the instrument.

c-KIT2 G4 [4] = assay: Isothermal titration calorimetry (ITC) with c-KIT2 G4; type: binding, human; conditions: ITC at 25°C, triplicate; for Ka: c-KIT2 G4 16–20 μM, peptide 280–400 μM, 5 mM KH2PO4/K2HPO4, 20 mM KCl, pH 7.0; for Kd: c-KIT2 G4, Kd = 1/Ka
Protocol: ITC experiments were conducted at 25°C using a nano-ITC Low Volume calorimeter (TA instruments, Lindon, UT, USA). DNA and peptide solutions were prepared using the same batch of buffer (5 mM KH2PO4/K2HPO4 buffer containing 20 mM KCl, pH 7.0) to prevent differences in buffer composition and pH. Each titration consisted of 25 injections of a 2 μl peptide solution (280–400 μM) sequentially injected using a computer-controlled 50 μl syringe, into the calorimetric vessel (190 μl) containing the oligonucleotide (16–20 μM). A spacing of 300 s between each injection was applied to allow the system to reach the equilibrium. The heat generated by peptide dilution was assessed in a control experiment by injecting the peptide solution into the buffer (Supplementary Figure S30). All measurements were performed in triplicate. Subsequently, the interaction heat for each injection was calculated considering the correction for the heat of peptide dilution. The corrected heat values were plotted as a function of the molar ratio to provide binding isotherms. The isotherms were fitted with a multiple-sites binding model using the NanoAnalyze software (TA instruments) provided with the instrument. This analysis provided the equilibrium binding constant (Ka), binding enthalpy (ΔH°), and stoichiometry of interaction (n). The equilibrium dissociation constant (Kd), Gibbs free-energy change and entropy change were determined using the following relationships: Kd = 1/Ka, ΔG° = -RT ln Ka (R = 8.314 J mol^−1 K^−1, T = 298.15 K), and TΔS° = ΔH° – ΔG°.

FITC-Myb397-415 [5] = target: T2, FITC-Myb397-415 (UniProt P11938 397-415); assay: microscale thermophoresis; 5 mM KH2PO4/K2HPO4, 20 mM KCl (c-MYC stock annealed in LiCl), pH 7.0; MST 25 C with 0.1% Tween, 5% DMSO, 20 nM labelled peptide, DNA titrated (stocks from 10 or 20 uM, mixed 1:1); ITC 25 C; conditions: tags: N-terminal FITC-O2Oc, C-terminal NH2
T2 chain: {FITC-AEEA}-NHTGNSIRHRFRVYLSKRL-NH2

Myb397-415 = target: T3, Myb397-415 (UniProt P11938 397-415); assay: isothermal titration calorimetry; 5 mM KH2PO4/K2HPO4, 20 mM KCl (c-MYC stock annealed in LiCl), pH 7.0; MST 25 C with 0.1% Tween, 5% DMSO, 20 nM labelled peptide, DNA titrated (stocks from 10 or 20 uM, mixed 1:1); ITC 25 C; conditions: tags: N-acetyl; C-terminal NH2; chain copies: 3; parallel G4
T3 chain: NHTGNSIRHRFRVYLSKRL

FITC-Myb397-415 [6] = target: T2, FITC-Myb397-415; assay: MST; 20 mM K+; 5 mM KH2PO4/K2HPO4 pH 7.0, 20 mM KCl (LiCl for c-MYC stock), 25 C; MST with 0.1% Tween and 5% DMSO, 20 nM FITC-peptide; conditions: hybrid G4

## NHTGNSARHRFRVYLSKRL [Myb^A403]
c-KIT2 G4 [1]
  ΔT1/2 of c-KIT2 G4: 17.7 (±0.2) °C

## NHTGNSIRARFRVYLSKRL [Myb^A405]
c-KIT2 G4 [1]
  ΔT1/2 of c-KIT2 G4: 16.0 (±0.2) °C

## TAGGGTTAGGGTTAGGGTTAGGG [HT-FANA]
FITC-Myb397-415 [2]
  Kd: 140 nM

## NHTGNSIRHRFRVYLSKAL [Myb^A414]
c-KIT2 G4 [1]
  ΔT1/2 of c-KIT2 G4: 10.7 (±0.6) °C

## RRRRRRRW-GG-NHTGNSIRHRFRVYLAKRL [R7W-Myb^A412, Myb^A412 N-terminally conjugated to the cell-penetrating peptide R7W via a glycine–glycine spacer]
U2OS cells; 72 h, at the 5 μM concentration
  Inhibition of tumour cell growth compared with the other R7W-conjugated peptides: slightly more effective than the others
U2OS cells; 72 h treatment
  Inhibition of tumour cell growth, R7W-conjugated peptides: essentially to the same extent as R7W-Myb^397–415

## NHTGASIRHRFRVYLSKRL [Myb^A401]
c-KIT2 G4 [1]
  ΔT1/2 of c-KIT2 G4: 19.7 (±0.2) °C

## NHTGNSIRHRFRVYASKRL [Myb^A411]
c-KIT2 G4 [1]
  ΔT1/2 of c-KIT2 G4: 19.5 (±0.4) °C

## Ac-NHTANSIRHRFRVYLSKRL-NH2 [Myb^A400]
c-KIT2 G4 [3]
  Kd: ~170 nM
c-KIT2 G4 [1]
  ΔT1/2 of c-KIT2 G4: 21.1 (±0.4) °C
  ΔΔT1/2, change in c-KIT2 G4-stabilizing properties with respect to Myb^397–415: 3.8 °C
U2OS cells; 72 h treatment
  Impact on cancer cell viability, peptides in native form: unable to significantly impact cancer cells viability
c-KIT2 G4 [4]
  Ka: 7.3 (±1.3) ×10^6 M^−1
  Kd: 137 nM

## NHTGNSIRHRFRVALSKRL [Myb^A410]
c-KIT2 G4 [1]
  ΔT1/2 of c-KIT2 G4: 13.6 (±0.2) °C

## AHTGNSIRHRFRVYLSKRL [Myb^A397]
c-KIT2 G4 [1]
  ΔT1/2 of c-KIT2 G4: 18.0 (±0.2) °C

## NHTGNSIAHRFRVYLSKRL [Myb^A404]
c-KIT2 G4 [1]
  ΔT1/2 of c-KIT2 G4: 16.6 (±0.2) °C

## NHTGNSIRHRFAVYLSKRL [Myb^A408]
c-KIT2 G4 [1]
  ΔT1/2 of c-KIT2 G4: 14.0 (±0.6) °C

## NHTGNSIRHRFRAYLSKRL [Myb^A409]
c-KIT2 G4 [1]
  ΔT1/2 of c-KIT2 G4: 14.7 (±0.6) °C

## NHAGNSIRHRFRVYLSKRL [Myb^A399]
c-KIT2 G4 [1]
  ΔT1/2 of c-KIT2 G4: 18.5 (±0.2) °C

## NHTGNSIRHRFRVYLSARL [Myb^A413]
c-KIT2 G4 [1]
  ΔT1/2 of c-KIT2 G4: 10.7 (±0.6) °C

## NATGNSIRHRFRVYLSKRL [Myb^A398]
c-KIT2 G4 [1]
  ΔT1/2 of c-KIT2 G4: 19.8 (±0.2) °C

## NHTGNSIRHRARVYLSKRL [Myb^A407]
c-KIT2 G4 [1]
  ΔT1/2 of c-KIT2 G4: 17.8 (±0.2) °C

## NHTGNSIRHAFRVYLSKRL [Myb^A406]
c-KIT2 G4 [1]
  ΔT1/2 of c-KIT2 G4: 12.1 (±0.3) °C

## Ac-NHTGNSIRHRFRVYLAKRL-NH2 [Myb^A412]
c-KIT2 G4 [3]
  Kd: ~130 nM
c-KIT2 G4 [1]
  ΔT1/2 of c-KIT2 G4: 23.3 (±0.2) °C
  ΔΔT1/2, change in c-KIT2 G4-stabilizing properties with respect to Myb^397–415: 6.0 °C
U2OS cells; 72 h treatment
  Impact on cancer cell viability, peptides in native form: unable to significantly impact cancer cells viability
c-KIT2 G4 [4]
  Ka: 5.3 (±0.8) ×10^6 M^−1
  Kd: 187 nM

## NHTGNSIRHRFRVYLSKRA [Myb^A415]
c-KIT2 G4 [1]
  ΔT1/2 of c-KIT2 G4: 17.8 (±0.5) °C

## RRWWRRWRR-GG-NHTGNSIRHRFRVYLSKRL [R6W3-Myb^397–415]
U2OS cells; 72 h treatment, read-out: IC50 (concentration of drug capable of killing 50% of cells)
  IC50: ~10000 nM

## NHTGNAIRHRFRVYLSKRL [Myb^A402]
c-KIT2 G4 [1]
  ΔT1/2 of c-KIT2 G4: 18.5 (±0.2) °C

B1: HER2 (structured_DNA)
DNA: GGAGAAGGAGGAGGTGGAGGAGGAGGG
FITC-Myb397-415 [5]; parallel G4
  Kd: 130 ± 20 nM
Myb397-415
  Kd: 100 ± 10 nM

B2: BCL-2 (structured_DNA)
DNA: GGGCGCGGGAGGAATTGGGCGGG
FITC-Myb397-415 [5]; hybrid G4
  Kd: 280 ± 42 nM

B3: c-MYC (structured_DNA)
DNA: TGAGGGTGGGTAGGGTGGGTAA
FITC-Myb397-415 [5]; parallel G4
  Kd: 430 ± 100 nM

B4: ds12 (dsDNA)
DNA 1: CGCGAATTCGCG
DNA 2: CGCGAATTCGCG
FITC-Myb397-415 [5]; blunt, self-complementary
  binding result: no binding

B5: VEGFR-17T (structured_DNA)
DNA: GGGTACCCGGGTGAGGTGCGGGGT
FITC-Myb397-415 [5]; hybrid (mixed parallel/antiparallel) G4
  binding result: no binding

B6: HT2 (structured_DNA)
DNA: TTAGGGTTAGGGTTAGGGTTAGGGTT
FITC-Myb397-415 [6]
  Kd: 1180 ± 90 nM
FITC-Myb397-415 [5]; hybrid G4
  Kd: 1180 ± 90 nM

B7: HT1 (structured_DNA)
DNA: TTGGGTTAGGGTTAGGGTTAGGGA
FITC-Myb397-415 [6]
  Kd: 900 ± 140 nM
FITC-Myb397-415 [5]; hybrid G4
  Kd: 900 ± 140 nM

B8: c-KIT1 (structured_DNA)
DNA: AGGGAGGGCGCTGGGAGGAGGG
FITC-Myb397-415 [5]; parallel G4
  Kd: 340 ± 44 nM

B9: LWDLN1 (structured_DNA)
DNA: GGGTTTGGGTTTTGGGAGGG
FITC-Myb397-415 [5]; antiparallel G4
  binding result: no binding

B10: HRAS1 (structured_DNA)
DNA: TCGGGTTGCGGGCGCAGGGCACGGGCG
FITC-Myb397-415 [5]; antiparallel G4
  binding result: no binding
